*1 amine or outer side, *2 acyl side, *3 side chain or, on linkers, in order; H or OH if unused. Where a SMILES comes first, the peptide text is derived from it. Bridges are numbered along the chain shown (N, C = ends). Side-chain parts run from the residue outwards. [ ]: non-standard residue; d: D form. The star is where a group is joined. Me3N+(CH2)2O(CH2)2O(CH2)2CO = C[N+](C)(C)CCOCCOCCC(=O)*; CH2CH2OCH2CH2OCH2CH2NMe3+ = C[N+](C)(C)CCOCCOCC*; Trp(7-Me) = Cc1cccc2c(C[C@H](N)C(=O)O)c[nH]c12; C18 diacid = O=C(O)CCCCCCCCCCCCCCCCC(=O)*; γGlu = O=C(O)[C@H](CCC(=O)[*:2])N[*:1]; 2Nal = N[C@@H](Cc1ccc2ccccc2c1)C(=O)O; AEF = NCCOc1ccc(C[C@H](N)C(=O)O)cc1; PEG6 = NCCOCCOCCOCCOCCOCCOCCC(=O)O; X2 = C[N+](C)(C)C[C@@H](CC(=O)O)N*; 3Pal = N[C@@H](Cc1cccnc1)C(=O)O; Lys(Me) = CNCCCC[C@H](N)C(=O)O; NMeK = CN[C@@H](CCCCN)C(=O)O; PEG4 = NCCOCCOCCOCCOCCC(=O)O; Pen = CC(C)(S)[C@H](N)C(=O)O; Suc = O=C(CCC(=O)[*:2])[*:1]; Thp = NC1(C(=O)O)CCOCC1; AEEA = NCCOCCOCC(=O)O; ClAc = O=C(CCl)*; Sar = CNCC(=O)O
Tests used:
[1] = target: T1, IL-23R (Homo sapiens, UniProt Q5VWK5); assay: IL23R Reporter Assay; type: cell-based; settings: HEK293 cells containing IL-23R, IL-12Rβ1 and STAT-inducible firefly luciferase reporter; 10 ng/mL IL-23 (EC90); 5 h
T1 construct: HEK293 cells containing IL-23R, IL-12Rβ1 and a firefly luciferase reporter gene driven by a STAT-inducible promoter (Promega); host or cells: HEK293
T1 sequence (Q5VWK5 24-629): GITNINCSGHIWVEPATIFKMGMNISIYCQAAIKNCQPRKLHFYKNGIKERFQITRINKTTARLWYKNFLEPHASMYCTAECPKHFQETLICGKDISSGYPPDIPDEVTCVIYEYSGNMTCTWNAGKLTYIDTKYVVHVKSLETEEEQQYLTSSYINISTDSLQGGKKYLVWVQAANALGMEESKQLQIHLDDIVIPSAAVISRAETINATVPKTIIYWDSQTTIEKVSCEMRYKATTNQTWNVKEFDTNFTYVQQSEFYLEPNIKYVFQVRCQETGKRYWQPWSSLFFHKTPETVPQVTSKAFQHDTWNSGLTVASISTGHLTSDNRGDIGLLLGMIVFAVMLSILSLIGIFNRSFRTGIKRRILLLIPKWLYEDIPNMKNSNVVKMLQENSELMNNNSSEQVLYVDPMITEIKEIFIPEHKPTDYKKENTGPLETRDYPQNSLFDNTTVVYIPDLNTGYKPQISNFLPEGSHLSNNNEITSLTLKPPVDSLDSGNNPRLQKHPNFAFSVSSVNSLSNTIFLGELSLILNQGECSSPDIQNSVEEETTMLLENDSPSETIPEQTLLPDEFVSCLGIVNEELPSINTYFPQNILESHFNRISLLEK
Summary of the method: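 IC50 values were fitted with a 4-parameter Hill equation to luciferase signal, scaled between IL-23-only wells (0% inhibition) and 30 μM reference inhibitor (100%). The readout was a STAT-inducible reporter in IL-23R/IL-12Rβ1 HEK293 cells, stimulated with added 10 ng/mL IL-23 (EC90) for 5 h at 37° C and developed with BioGlo.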

[2] = tested on: IL-23-stimulated phosphorylated STAT3 in peripheral blood mononuclear cells (PBMCs); assay: PBMC pSTAT3 Assay; type: cell-based; settings: PBMCs from healthy donors; 30 min preincubation with peptide; IL-23 5 ng/mL for 30 min; phospho-STAT3 by MSD
Summary of the method: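 Phospho-STAT3 quantified by Meso Scale assay in lysates of PBMCs exposed to IL-23 (5 ng/mL, 30 min, 37 °C) after 30 min peptide pretreatment. Cells were cryopreserved donor PBMCs activated 4 days with anti-CD3 plus IL-1β (100 ng/mL) and starved ~4 h; IC50 reported.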

Row | SMILES | IC50 [1] | IC50 [2]
1 | CC(=O)NCCCC[C@@H]1NC(=O)[C@H](Cc2c[nH]c3c(C)cccc23)NC(=O)[C@H]([C@@H](C)O)NC(=O)[C@H](CC(N)=O)NC(=O)[C@@H](NC(=O)[C@@H](CCCNC(=N)N)NC(C)=O)C(C)(C)SSC(C)(C)[C@@H](C(=O)N[C@@H](Cc2ccc(OCCN)cc2)C(=O)N[C@@H](Cc2ccc3ccccc3c2)C(=O)NC2(C(=O)N[C@@H](CCCCNC(=O)CCOCCOCCOCCOCCNC(=O)CCl)C(=O)N[C@@H](CC(N)=O)C(=O)N[C@@H](Cc3cccnc3)C(=O)N(C)CC(=O)N[C@@H](CCCCNC(=O)COCCOCCNC(=O)COCCOCCNC(=O)CC[C@H](NC(=O)CCCCCCCCCCCCCCCCC(=O)O)C(=O)O)C(N)=O)CCOCC2)NC1=O [compound 4, MeCO-r-Pen(3)-N-T-7MeW-K(Ac)-Pen(3)-AEF-2Nal-THP-K(PEG4AcCl)-N-3Pya-Sar-K(PEG2PEG2gEC18OH)-CONH2] (Ac-[dR][Pen]NT[Trp(7-Me)]K(Ac)[Pen][AEF][2Nal][Thp]K([PEG4-ClAc])N[3Pal][Sar]K([AEEA-AEEA-γGlu-C18 diacid])-NH2; disulfide 2-7) | < 0.05 µM | < 0.0005 µM
2 | C=C(O)CCCCCCCCCCCCCCCCC(=O)N[C@@H](CCC(=O)NCCOCCOCC(=O)NCCCCCOCC(=O)NCCCC[C@@H]1NC(=O)[C@@H](NC(=O)CCOCCOCC[N+](C)(C)C)CCCC[C@@H](C(=O)N[C@@H](Cc2ccc(OCCOCCOCC[N+](C)(C)C)cc2)C(=O)N[C@@H](Cc2ccc3ccccc3c2)C(=O)NC2(C(=O)N[C@@H](CCCCN(C)C(C)=O)C(=O)N[C@@H](CC(N)=O)C(=O)N[C@@H](Cc3cccnc3)C(=O)N(C)CC(=O)N(C)C)CCCCC2)NC(=O)[C@H](CCCCN(C)C(C)=O)NC(=O)[C@H](Cc2c[nH]c3c(C)cccc23)NC(=O)[C@H]([C@@H](C)O)NC1=O)C(=O)O [compound 158, cPEG3aCO-Pen(3)-K(PEG2PEG2gEC18OH)-T-7MeW-K(NMeAc)-Pen(3)-APEG3F-2Nal-THP-K(NMeAc)-N-3Pya-Sar-CON(Me)2] | 0.05 to 0.5 µM | 0.0005 to 0.005 µM
3 | CC(=O)N(C)CCCC[C@@H]1NC(=O)[C@H](Cc2c[nH]c3c(C)cccc23)NC(=O)[C@H]([C@@H](C)O)NC(=O)[C@H](CC(=O)N(C)C)NC(=O)[C@@H](NC(=O)CCOCCOCC[N+](C)(C)C)C(C)(C)SSC(C)(C)[C@@H](C(=O)N[C@@H](Cc2ccc(OCCOCCOCC[N+](C)(C)C)cc2)C(=O)N[C@@H](Cc2ccc3ccccc3c2)C(=O)NC2(C(=O)N[C@@H](CCCCN(C)C(C)=O)C(=O)N[C@@H](CC(N)=O)C(=O)N[C@@H](Cc3cccnc3)C(=O)N(C)[C@@H](CCCCNC(=O)CCOCCOCCOCCOCCOCCOCCNC(=O)CC[C@H](NC(=O)CCCCCCCCCCCCCCCCC(=O)O)C(=O)O)C(N)=O)CCOCC2)NC1=O [compound 88, cPEG3aCO-Pen(3)-N(N(Me)2)-T-7MeW-K(NMeAc)-Pen(3)-APEG3F-2Nal-THP-K(NMeAc)-N-3Pya-NMeK(PEG6gEC18OH)-CONH2] ({Me3N+(CH2)2O(CH2)2O(CH2)2CO}-[Pen]D(NMe2)T[Trp(7-Me)][Lys(Me)](Ac)[Pen]Y(CH2CH2OCH2CH2OCH2CH2NMe3+)[2Nal][Thp][Lys(Me)](Ac)N[3Pal][NMeK]([PEG6-γGlu-C18 diacid])-NH2; disulfide 1-6) | < 0.05 µM | < 0.0005 µM
4 | Cc1cccc2c(C[C@@H]3NC(=O)[C@H]([C@@H](C)O)NC(=O)[C@H](CC(N)=O)NC(=O)[C@@H](NC(=O)[C@@H](CCCNC(=N)N)NC(=O)COCCOCCNC(=O)COCCOCCNC(=O)CC[C@H](NC(=O)CCCCCCCCCCCCCCCCC(=O)O)C(=O)O)C(C)(C)SSC(C)(C)[C@@H](C(=O)N[C@@H](Cc4ccc(OCCN)cc4)C(=O)N[C@@H](Cc4ccc5ccccc5c4)C(=O)NC4(C(=O)N[C@@H](CCC(=O)O)C(=O)N[C@@H](CC(N)=O)C(=O)N[C@@H](Cc5cccnc5)C(=O)N(C)CC(N)=O)CCOCC4)NC(=O)[C@H](CCCCNC(=O)CCC(=O)N[C@H](CC(=O)O)C[N+](C)(C)C)NC3=O)c[nH]c12 [compound 46, HOC18gEPEG2PEG2CO-r-Pen(3)-N-T-7MeW-K(d)-Pen(3)-AEF-2Nal-THP-E-N-3Pya-Sar-CONH2] ({C18 diacid-γGlu-AEEA-AEEA}-[dR][Pen]NT[Trp(7-Me)]K([Suc-X2])[Pen][AEF][2Nal][Thp]EN[3Pal][Sar]-NH2; disulfide 2-7) | < 0.05 µM | < 0.0005 µM

From patent US20260250320A1, “LIPIDATED PEPTIDE INHIBITORS OF INTERLEUKIN-23 RECEPTOR” (Janssen Pharmaceutica NV, priority 2023, published 2026)
